Results on two compounds are retold here after patent US20180118648A1, “5-SUBSTITUTED-5-HYDROXY-5-ARYL-3-OXO-PENTANOATE DERIVATIVES AND THEIR ENANTIOPURE FORMS” (OKINAWA INSTITUTE OF SCIENCE AND TECHNOLOGY SCHOOL …, priority 2015, published 2018).

As to `CCOC(=O)/C=C(\C[C@@](O)(c1ccccc1)C(F)(F)F)N[C@H](C)c1ccccc1` [Compound 5a-1, (R)-ethyl 6,6,6,-trifluoro-5-hydroxy-5-phenyl-(((R)-1-phenyl)amino)hex-2-enoate], the melting point amounted to 126 °C.
For the compound `CCOC(=O)/C=C(\C[C@@](O)(c1cccs1)C(F)(F)F)N[C@H](C)c1ccccc1` [Compound 5ac-1, (S)-ethyl 6,6,6-trifluoro-5-hydroxy-3-(((R)-1-phenylethyl)amino)-5-(thiophen-2-yl)hexa-2-enoate], the melting point was 133 °C.
